Test results reported in ChEMBL document CHEMBL1201862, “PubChem BioAssay data set” (2004).
Active and inactive are the calls of the source.

Legend:
Protein RecA = target: T1, Protein RecA (Mycobacterium tuberculosis, UniProt P9WHJ3); test: Fluorescence Cell-Free Homogeneous Dose Retest to Identify Inhibitors of RecA-Intein Splicing Activity. [Related pubchem assays (depositor defined):AID2097, AID2223, AID489010, AID492950]; format: functional
T1 sequence (P9WHJ3 whole entry): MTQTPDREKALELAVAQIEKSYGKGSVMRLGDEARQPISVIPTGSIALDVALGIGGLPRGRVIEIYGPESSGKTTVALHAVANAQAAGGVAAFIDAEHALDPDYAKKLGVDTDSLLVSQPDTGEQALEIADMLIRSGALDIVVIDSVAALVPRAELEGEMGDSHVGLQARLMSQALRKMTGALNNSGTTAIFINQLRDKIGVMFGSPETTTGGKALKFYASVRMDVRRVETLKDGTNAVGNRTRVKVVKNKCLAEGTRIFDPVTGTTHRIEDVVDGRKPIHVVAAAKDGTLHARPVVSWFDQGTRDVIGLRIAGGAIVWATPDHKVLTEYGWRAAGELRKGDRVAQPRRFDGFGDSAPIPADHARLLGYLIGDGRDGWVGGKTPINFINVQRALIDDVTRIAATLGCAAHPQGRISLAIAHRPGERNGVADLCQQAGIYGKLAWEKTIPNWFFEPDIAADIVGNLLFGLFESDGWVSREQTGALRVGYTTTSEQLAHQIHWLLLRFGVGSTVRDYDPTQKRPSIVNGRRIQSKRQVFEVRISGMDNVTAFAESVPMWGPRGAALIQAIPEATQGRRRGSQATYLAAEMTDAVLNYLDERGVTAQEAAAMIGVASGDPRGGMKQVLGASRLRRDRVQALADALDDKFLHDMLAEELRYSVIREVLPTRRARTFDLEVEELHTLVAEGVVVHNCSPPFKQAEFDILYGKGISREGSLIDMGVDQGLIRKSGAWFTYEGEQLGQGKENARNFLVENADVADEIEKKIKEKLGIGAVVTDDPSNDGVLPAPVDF

[1] = target: T2, Polyadenylate-binding protein 1 (Homo sapiens, UniProt P11940); test: PABP1 MLLE–PAM2 interaction inhibitors, dose response, miRNA deadenylation inhibitor project, biochemical, fluorescence polarization, Cy5-PAM2 peptide, secondary (AID 602260); format: functional; conditions: read-out: IC50_Mean
[2] = target: T2, Polyadenylate-binding protein 1; test: PABP1 MLLE–PAM2 binding inhibitor potency, dose response, biochemical, fluorescence polarization, FITC-PAM2 peptide (AID 602259); format: functional; conditions: read-out: IC50_Mean
[3] = THP-1 cell cytotoxicity, dose response, cytotoxicity control for Vif-APOBEC3G degradation inhibitor project, THP-1 cells (AID 1117359); format: functional; conditions: Human immunodeficiency virus 1, THP-1
[4] = Luminescence Cell-Based Dose Response to Identify Activators of 5'UTR Stem-Loop Driven Prion Protein mRNA Translation in H4-C Neuroglioblastoma Cells. [Related pubchem assays: 1829 (Project Summary), 1814 (Primary HTS)]; format: functional
[5] = Luminescence Cell-Based Dose Confirmation HTS to Identify Activators of 5'UTR Stem-Loop Driven Alpha-Synuclein mRNA Translation in H4 Neuroglioblastoma Cells. [Related pubchem assays: 1829 (Project Summary), 1814 (Primary HTS)]; format: functional
[6] = Luminescence Cell-Based Dose Response HTS to Identify Activators of Luciferase Translation or Activity in H4 […] Cells. [Related pubchem assays: 1829 (Project Summary), 1814 (Primary HTS)]; format: functional
H4 = test: Luminescence Cell-Based Dose Response HTS to Identify Activators of 5'UTR Stem-Loop Driven Prion Protein mRNA Translation in H4 Neuroglioblastoma Cells. [Related pubchem assays: 1829 (Project Summary), 1814 (Primary HTS)]; format: functional; conditions: Homo sapiens
[7] = Luminescence Cell-Based Dose Response to Identify Activators of Luciferase Translation or Activity in H4-C Neuroglioblastoma Cells. [Related pubchem assays: 1829 (Project Summary), 1814 (Primary HTS)]; format: functional
[8] = Luminescence Cell-Based Dose Confirmation to Identify Activators of 5'UTR Stem-Loop Driven Alpha-Synuclein mRNA Translation in H4 Neuroglioblastoma Cells. [Related pubchem assays: 1829 (Project Summary), 1814 (Primary HTS)]; format: functional
[9] = target: G-protein coupled receptor 183 (Homo sapiens, UniProt P32249); test: SAR confirmation of small molecule antagonists of the EBI2 receptor via a luminescent beta-arrestin assa.; format: functional
[10] = P. falciparum Dd2 growth inhibitors, dose response, SYBR Green, dry powder samples, set 9 (AID 1159568); format: functional, cell-based
[11] = Concentration-dependent survival of SW480 colon cancer line, luminescence detection with CellTiter-Glo, half-maximal inhibitory concentration (AID 1117338); format: functional
[12] = RKO cell viability reduction, dose response, CellTiter-Glo luminescence (AID 1117322); format: functional
[13] = cytotoxicity toward HCT116 cells – cell-based, CellTiter-Glo luminescence, IC50, dose response (AID 1117332); format: functional; conditions: HCT-116
[14] = SNU-C1 cell viability reduction, dose response, CellTiter-Glo luminescence (AID 1117323); format: functional, cell-based
[15] = cytotoxicity toward Colo320 cells – cell-based, CellTiter-Glo luminescence, IC50, dose response (AID 1117334); format: functional; conditions: COLO 320
[16] = cytotoxicity toward HT-29 cells – cell-based, CellTiter-Glo luminescence, IC50, dose response (AID 1117330); format: functional
[17] = CellTiter-Glo luminescent dose response of DLD-1 viability loss (AID 1117352); format: functional
[18] = HCT116 cell viability decrease, GSK3B pretreatment – CellTiter-Glo, IC50, dose response (AID 1117339); format: functional; conditions: HCT-116
[19] = P. falciparum 3D7-ScDHODH growth inhibitors, dose response, SYBR Green, dry powder samples (AID 1159570); format: functional, cell-based;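 also: parasite growth measured after 72 hours of compound exposure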
[20] = HepG2 cell cytotoxicity, dose response, cytotoxicity control, plate reader, dry powder samples (AID 1159569); format: functional, cell-based;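 also: inhibitor potency with signal falling toward the positive control level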
[21] = P. falciparum Dd2 growth inhibitors, dose response, SYBR Green, cherry-picked samples (AID 1159567); format: functional, cell-based
[22] = P. falciparum Dd2 growth inhibitors, dose response, SYBR Green, dry powder samples (AID 1159566); format: functional, cell-based;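 also: potency for growth inhibition with lower SYBR green DNA signal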
[23] = P. falciparum ATP4 D1247Y mutant growth inhibitors, dose response, NITD609-resistant line, SYBR Green, dry powder (AID 1159571); format: functional, cell-based;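 also: parasites synchronized at ring stage by sorbitol before testing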
Vero = test: host cell cytotoxicity of antiviral hits, dose response, cytotoxicity control for West Nile virus antiviral project, secondary assay (AID 1650); format: functional; conditions: Chlorocebus sabaeus
[24] = target: T3, Ubiquitin-conjugating enzyme E2 N (Homo sapiens, UniProt P61088); format: functional;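 also: Dose-response confirmation in a TR-FRET assay detecting UBC13-driven polyubiquitin chain formation, inhibition measured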
T3 sequence (P61088 whole entry): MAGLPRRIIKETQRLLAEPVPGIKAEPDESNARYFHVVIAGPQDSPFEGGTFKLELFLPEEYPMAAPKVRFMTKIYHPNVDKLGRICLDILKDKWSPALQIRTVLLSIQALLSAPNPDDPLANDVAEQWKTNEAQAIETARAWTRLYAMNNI

[25] = Dose-response inhibition of insulin secretion in a rat insulinoma line at 5 mM glucose (AID 1117331); format: functional, cell-based; conditions: INS-1E
[26] = half-maximal inhibitory concentration for glucagon-like peptide-1 release, STC-1 cell line, dose-response (AID 1117345); format: functional, cell-based
[27] = Glucagon-like peptide 1 release potency, NCI-H716 cell line, dose-response, half-maximal inhibitory concentration (AID 1117344); format: functional, cell-based

Chain of G-protein coupled receptor 183 (P32249 whole entry): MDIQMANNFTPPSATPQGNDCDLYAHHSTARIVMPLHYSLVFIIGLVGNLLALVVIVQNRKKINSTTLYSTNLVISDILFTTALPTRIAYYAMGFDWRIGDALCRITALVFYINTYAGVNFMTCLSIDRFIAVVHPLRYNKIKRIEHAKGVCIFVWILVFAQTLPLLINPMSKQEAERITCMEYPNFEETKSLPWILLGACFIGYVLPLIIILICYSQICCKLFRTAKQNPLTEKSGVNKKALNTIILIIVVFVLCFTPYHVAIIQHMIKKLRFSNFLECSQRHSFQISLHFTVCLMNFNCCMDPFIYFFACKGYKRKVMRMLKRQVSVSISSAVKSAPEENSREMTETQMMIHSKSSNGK
T2 sequence (P11940 whole entry): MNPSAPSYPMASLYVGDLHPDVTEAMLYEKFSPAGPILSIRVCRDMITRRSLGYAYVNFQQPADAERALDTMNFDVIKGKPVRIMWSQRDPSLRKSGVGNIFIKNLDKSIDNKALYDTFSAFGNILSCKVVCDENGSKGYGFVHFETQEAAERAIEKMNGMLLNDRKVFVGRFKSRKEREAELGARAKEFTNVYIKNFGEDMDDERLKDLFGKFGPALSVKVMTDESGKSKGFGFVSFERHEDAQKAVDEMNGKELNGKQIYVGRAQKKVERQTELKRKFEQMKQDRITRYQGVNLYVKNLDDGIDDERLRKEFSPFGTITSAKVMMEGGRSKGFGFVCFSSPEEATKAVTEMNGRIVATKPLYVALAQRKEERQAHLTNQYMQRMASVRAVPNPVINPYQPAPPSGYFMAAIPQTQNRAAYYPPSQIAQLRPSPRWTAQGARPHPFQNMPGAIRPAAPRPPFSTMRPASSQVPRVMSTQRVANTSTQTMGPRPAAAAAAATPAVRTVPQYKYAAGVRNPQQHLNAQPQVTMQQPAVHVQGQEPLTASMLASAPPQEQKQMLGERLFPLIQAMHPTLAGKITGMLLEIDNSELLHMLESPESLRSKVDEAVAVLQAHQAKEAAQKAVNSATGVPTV

Cc1ccc(C(=O)N/N=C\c2cc(Br)c(Br)o2)cn1
EC50 (Protein RecA): > 380 µM (inconclusive)
IC50 [1]: > 66 µM (inactive)
IC50 [2]: 46.3 µM (inactive)
CC50 [3]: 18.2 µM (active)

Fc1ccccc1NC(=S)N/N=C/c1ccccc1Br
EC50 [4]: 0.578 µM (active)
EC50 [5]: 0.219 µM (active)
EC50 [6]: < 0.1 µM (active)
EC50 (H4): > 120 µM (not active)
EC50 [7]: 0.376 µM (active)
EC50 [8]: 5.76 µM (active)

O=C(/C=C/c1ccc(F)cc1)N1CCN(S(=O)(=O)c2ccccc2)CC1
IC50 [9]: 0.0125 µM (active)

C[C@@H]1CN([C@@H](C)CO)C(=O)c2cc(C#Cc3ccccc3)cnc2O[C@H]1CN(C)C(=O)c1ccccc1
AC50 [10]: 4.99 µM (active)

CCCCCCCCCCCCCCCC(=O)OCC=C(C)C=CC=C(C)C=CC1=C(C)CCCC1(C)C
IC50 [11]: > 20 µM (inactive)
IC50 [12]: > 20 µM (inactive)
IC50 [13]: > 20 µM (inactive)
IC50 [14]: > 20 µM (inactive)
IC50 [15]: > 20 µM (inactive)
IC50 [16]: > 20 µM (inactive)
IC50 [17]: > 20 µM (inactive)
IC50 [18]: > 20 µM (inactive)

CCCNC(=O)N1[C@H](C#N)[C@H](c2ccc(C3=CCCCC3)cc2)[C@@H]1CO
AC50 [19]: 3.39 µM (active)
AC50 [20]: 0.601 µM (active)
AC50 [10]: 0.355 µM (active)
AC50 [21]: < 0.3 µM (active)
AC50 [22]: 0.0228 µM (active)
AC50 [23]: 0.0853 µM (active)

O=C(/C=C/c1ccc(Br)cc1)N1CCN(S(=O)(=O)c2ccc(Br)cc2)CC1
IC50 [9]: 0.00166 µM (active)

Cc1ccc(Nc2nc(NCCO)c3ccccc3n2)cc1C
CC50 (Vero): 13.4 µM (active)
IC50 [24]: > 20 µM (inactive)

CC(C)CCCC(C)NCCC(C)C (stereo not given) [OCTAMYLAMINE]
IC50 [25]: > 33.3 µM (inactive)
IC50 [26]: > 40 µM (inactive)
IC50 [27]: > 40 µM (inactive)

CC(=C(CCOC(=O)C(C)C)SSC(CCOC(=O)C(C)C)=C(C)N(C=O)Cc1cnc(C)nc1N)N(C=O)Cc1cnc(C)nc1N [SULBUTIAMINE]
IC50 [25]: > 33.3 µM (inactive)
IC50 [26]: > 40 µM (inactive)
IC50 [27]: 2.39 µM (active)
